US20140094465A1, “Compounds as S-Nitrosoglutathione Reductase Inhibitors” (N30 PHARMACEUTICALS, INC., priority 2011, published 2014)

Legend:
[1] = biological target: T1, S-nitrosoglutathione reductase (GSNOR) (Homo sapiens, UniProt P11766); assay: GSNOR assay (inhibition of GSNOR activity, NADH absorbance at 340 nm); type: biochemical; settings: GSNOR inhibitor activity, Tables 1-6; read-out: IC50 range
T1 construct: made in house; host or cells: E. coli
Outline: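 Recombinant GSNOR purified from E. coli, tag removed. Final conditions: 100 mM NaPO4 pH 7.4, 0.240 mM GSNO, 0.300 mM NADH, 0.5 μg/mL enzyme, 1% DMSO; NADH loss followed as 340 nm absorbance change over 3 min at 25 °C. Compounds 100–0.003 μM, triplicate; IC50 by curve analysis.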

[2] = Mouse pharmacokinetic (PK) study; type: in vivo; settings: male, BALB/c, plasma, po, 10 mg/kg, male BALB/c mice, 2 mg/kg IV, 10 mg/kg PO, read-out: oral bioavailability (% F)
Excerpt: The mouse was used to determine the pharmacokinetics of compounds of the invention. This species is widely used to assess the bioavailability of compounds by administering both oral (PO) and intravenous (IV) test articles. Efficacy of the compounds of the invention was compared by assessing plasma exposure in male BALB/c mice either via IV or PO administration at the times of peak activity.
Compounds of the invention were reconstituted in a phosphate buffered saline (PBS)/10% Solutol (HS 15) clear solution resulting in a concentration of 0.2 mg/mL and administered to mice (2 mg/kg) as a single IV dose. Animals were dosed via the lateral tail vein. Blood samples were collected at designated time points (0.083, 0.25, 0.5, 1, 2, 4, 8, 16, 24 hours) by cardiac puncture under isoflurane anesthesia (up to 1 mL blood per animal). The blood was collected into tubes containing Li-Heparin. The blood samples were kept on ice until centrifugation within approximately 30 minutes of collection. The plasma was transferred into labeled polypropylene tubes and frozen at −70° C. until analyzed by LC/MS/MS.
The compounds of the invention were reconstituted in 40% Propylene Glycol/40% Propylene Carbonate/20% of a 5% Sucrose clear solution resulting in a concentration of 2 mg/mL and administered to mice (10 mg/kg) as a single oral dose via gavage. Blood samples were collected at 0.25, 0.5, 1, 2, 4, 8, 12, 16, 20 and 24 hours post dose by cardiac puncture under isoflurane anesthesia. The blood was collected in tubes containing Li-Heparin. The blood samples were kept on ice until centrifugation within approximately 30 minutes of collection. The plasma was transferred into labeled polypropylene tubes and frozen at −70° C. until analyzed by LC/MS/MS.
Plasma samples at each timepoint were analyzed using a LC-MS/MS with a lower limit of quantification (LLOQ) of 1 ng/mL. Plasma was analyzed to determine the amount of the compound of the invention in each sample and regression curves generated for each compounds of the invention in the relevant matrixes.
WinNonlin analysis was used for calculating PK parameters for both the IV and PO administrations:
PK parameters for IV portion—AUClast; AUCINF; T1/2; Cl; Vss; Cmax; MRT
PK parameters for PO portion—AUClast; AUCINF; T1/2; Cmax; Cl, MRT.
In addition to the above PK parameters, bioavailability (% F) was calculated.

[3] = test system: dextran sodium sulfate (DSS)-induced IBD; assay: Acute prophylactic model of DSS-induced IBD; type: in vivo, mouse; settings: oral 1 mg/kg/day for 10 days, prophylactic
Excerpt: (§1) Acute and chronic models of dextran sodium sulfate (DSS)-induced IBD in mice were used to explore efficacy of GSNORi against this disease. Acute and chronic DSS-induced IBD are widely used and well characterized models that induce pathological changes in the colon similar to those observed in the human disease. In these models and in human disease, epithelial cells within the crypts of the colon are disrupted, leading to dysfunction of the epithelial barrier and the ensuing tissue inflammation, edema, and ulceration. GSNORi therapy may benefit IBD by restoring s-nitrosoglutathione (GSNO) levels, and thus prevent or reverse the epithelial barrier dysfunction. Experimental IBD was induced by administration of DSS in the drinking water of male C57Bl/6 mice (N=8 to 10 mice per group) for 6 consecutive days. GSNORi was dosed orally at doses of 0.1 to 10 mg/kg/day for 10 days starting two days prior to and continuing two days post DSS exposure. […] Levels of circulating cytokines involved in inflammatory pathways were also assessed. The effect of GSNORi was compared to vehicle treated controls. […] Naïve mice (N=5) were also assessed as a normal tissue control.

[4] = test system: dextran sodium sulfate (DSS)-induced IBD; assay: Chronic treatment model of DSS-induced IBD; type: in vivo, mouse; settings: oral 10 mg/kg/day for up to 14 days, treatment regimen
Excerpt: as §1, with “mice (N=10” for “mice (N=8”, “to 12” for “to 10”, “of” for “of 0.1 to”, “for 14” for “for 10”, “starting one day after cessation of” for “starting two days prior to and continuing two days post”

[5] = test system: cigarette smoke-induced COPD; assay: Subchronic (11 day) cigarette smoke exposure COPD model; type: in vivo, mouse; settings: subchronic 11 day model; for effects compared with roflumilast: roflumilast 5 mg/kg/day; for inhibition of smoke-induced increase in lymphocytes in BAL / inhibition of smoke-induced increase in macrophages in BAL / inhibition of smoke-induced increase in neutrophils in BAL / inhibition of smoke-induced increase in total cells in BAL: oral 1 mg/kg/day for 11 days
Method: Infiltration of inflammatory cells into the bronchoalveolar lavage fluid (BALF) and BALF levels of chemokines involved in inflammation and tissue turnover/repair were measured to assess the influences of GSNOR inhibitors on some of the early events associated with the initiation and progression of COPD. […] In animal models, changes in lung pathology are only evident after extended (several months) duration of exposure to cigarette smoke, thus making chronic models prohibitive as effective screening tools. […] The key roles of inflammation in the initiation and progression of COPD, make these short duration models relevant for initial tests of efficacy of novel therapeutics. Female C57Bl/6 mice (N=10 per group) were exposed to cigarette smoke generated from Marlboro 100 cigarettes without filters. Exposure times were 25 min. on study day 1, 35 min. on study day 2, and 45 min. on study days 3 to 11. GSNOR inhibitors were administered one hour prior to smoke exposure on each day. GSNOR inhibitors were dosed orally at 1 to 10 mg/kg/day for 11 days. […] The effect of GSNOR inhibitors were compared to vehicle treated controls and expressed as percent inhibition of the cigarette smoke induced increases in BALF cell numbers. Roflumilast was used as the positive control for the study and was dosed at 5 mg/kg/day. A group of naïve mice (N=10) was exposed to air and dosed with vehicle as a negative control for the study.

[6] = test system: ovalbumin (OVA)-induced asthma; assay: Mouse model of ovalbumin (OVA)-induced asthma (Penh, eosinophil infiltrate in BALF); type: in vivo; settings: three oral doses of 10 mg/kg at 48 h, 24 h, and 1 h prior to assessment
Method: A mouse model of ovalbumin (OVA)-induced asthma was used to screen GSNOR inhibitors for efficacy against methacholine (MCh)-induced bronchoconstriction/airway hyper-responsiveness. This is a widely used and well characterized model that presents with an acute, allergic asthma phenotype with similarities to human asthma. Efficacy of GSNOR inhibitors was assessed using a protocol in which GSNOR inhibitors were administered after OVA sensitization and airway challenge, and prior to challenge with MCh. Bronchoconstriction in response to challenge with increasing doses of MCh was assessed using whole body plethysmography (Penh; Buxco). The amount of eosinophil infiltrate into the bronchoaveolar lavage fluid (BALF) was also determined as a measure of lung inflammation. The effects of GSNOR inhibitors were compared to vehicles and to Combivent (inhaled; IH) as the positive control.
OVA (500 μg/ml) in PBS was mixed with equal volumes of 10% (w/v) aluminum potassium sulfate in distilled water and incubated for 60 min. at room temperature after adjustment to pH 6.5 using 10 N NaOH. After centrifugation at 750×g for 5 min, the OVA/alum pellet was resuspended to the original volume in distilled water. Mice received an intraperitoneal (IP) injection of 100 μg OVA (0.2 mL of 500 μg/mL in normal saline) complexed with alum on day 0. Mice were anesthetized by IP injection of a 0.2-mL mixture of ketamine and xylazine (0.44 and 6.3 mg/mL, respectively) in normal saline and were placed on a board in the supine position. Two hundred fifty micrograms (100 μl of a 2.5 mg/ml) of OVA (on day 8) and 125 μg (50 μl of 2.5 mg/ml) OVA (on days 15, 18, and 21) were placed on the back of the tongue of each animal.
In vivo airway responsiveness to methacholine was measured 24 h after the last OVA challenge in conscious, freely moving, spontaneously breathing mice with whole body plethysmography using a Buxco chamber (Wilmington, N.C.). Mice were challenged with aerosolized saline or increasing doses of methacholine (5, 20, and 50 mg/mL) generated by an ultrasonic nebulizer for 2 min. The degree of bronchoconstriction was expressed as enhanced pause (Penh), a calculated dimensionless value, which correlates with the measurement of airway resistance, impedance, and intrapleural pressure in the same mouse. Penh readings were taken and averaged for 4 min. after each nebulization challenge. Penh is calculated as follows: Penh=[(Te/Tr−1)×(PEF/PIF)], where Te is expiration time, Tr is relaxation time, PEF is peak expiratory flow, and PIF is peak inspiratory flow×0.67 coefficient. The time for the box pressure to change from a maximum to a user-defined percentage of the maximum represents the relaxation time. The Tr measurement begins at the maximum box pressure and ends at 40%.
After measurement of airway hyper-reactivity, the mice were exsanguinated by cardiac puncture, and then BALF was collected from either both lungs or from the right lung after tying off the left lung at the mainstem bronchus. Total BALF cells were counted from a 0.05 mL aliquot, and the remaining fluid was centrifuged at 200×g for 10 min at 4° C. Cell pellets were resuspended in saline containing 10% BSA with smears made on glass slides. Eosinophils were stained for 5 min. with 0.05% aqueous eosin and 5% acetone in distilled water, rinsed with distilled water, and counterstained with 0.07% methylene blue. Alternatively, eosinophils and other leukocytes were stained with DiffQuik.
GSNOR inhibitors were reconstituted in phosphate buffered saline (PBS), pH 7.4, or 0.5% w/v carboxy methylcellulose at concentrations ranging from 0.00005 to 3 mg/mL. GSNOR inhibitors were administered to mice (10 mL/kg) as a single dose or multiple dose either intravenously (IV) or orally via gavage. Dosing was performed from 30 min. to 72 h prior to MCh challenge. Effects of GSNOR inhibitors were compared to vehicle dosed in the same manner.
Combivent was used as the positive control in all studies. […]

T1 sequence (P11766 whole entry): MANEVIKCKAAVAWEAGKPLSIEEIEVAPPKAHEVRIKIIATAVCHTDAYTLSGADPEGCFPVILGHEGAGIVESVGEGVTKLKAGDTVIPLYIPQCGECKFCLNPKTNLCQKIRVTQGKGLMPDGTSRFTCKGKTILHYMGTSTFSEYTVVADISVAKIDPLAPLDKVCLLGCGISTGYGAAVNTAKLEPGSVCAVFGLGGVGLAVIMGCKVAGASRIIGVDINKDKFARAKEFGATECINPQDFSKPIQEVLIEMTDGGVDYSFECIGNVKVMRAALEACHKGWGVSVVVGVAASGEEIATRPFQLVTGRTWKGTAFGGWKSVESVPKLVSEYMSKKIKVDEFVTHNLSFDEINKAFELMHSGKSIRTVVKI

Compound | IC50 [1] | bioavailability [2] | decrease of percent of mice with severe colon injury scores via endoscopy [3] | decrease of percent of mice with severe colon injury scores via histopathology [3] | decrease of percent of mice with severe colon injury scores via endoscopy [4] | decrease of percent of mice with severe colon injury scores via histopathology [4] | effects compared with roflumilast [5] | decrease of eosinophil infiltration in BAL [6] | inhibition of smoke-induced increase in lymphocytes in BAL [5] | inhibition of smoke-induced increase in macrophages in BAL [5] | inhibition of smoke-induced increase in neutrophils in BAL [5] | inhibition of smoke-induced increase in total cells in BAL [5]
O=C(O)c1ccc(-c2nc3ccc(O)cc3cc2Cl)c(F)c1 [Compound I-28] | < 100 nM | > 9% | – | – | – | – | – | – | – | – | – | –
O=C(O)c1ccc(-c2ccc3cc(O)ccc3c2)c(Cl)c1 [III-1] | < 100 nM | – | 17 % of vehicle control | 21 % of vehicle control | 50 % of vehicle control | 17 % of vehicle control | comparable to those of roflumilast | – | – | – | – | –
O=C(O)c1ccc(-c2nc3ccc(O)cc3cc2Cl)cc1 [Compound I-19] | < 100 nM | > 9% | – | – | – | – | – | – | – | – | – | –
Cc1cc(C(=O)O)ccc1-c1ccc2cc(O)ccc2n1 [Compound I-27] | < 100 nM | – | – | – | – | – | comparable to those of roflumilast | 23 % of vehicle control | 46% | 41% | 64% | 44%
Oc1ccc2nc(-c3ccc(-c4nnn[nH]4)cc3)ccc2c1 [Compound I-4] | < 100 nM | > 9% | – | – | – | – | – | – | – | – | – | –
O=C(O)c1ccc(-c2ccc3cc(O)ccc3n2)c(F)c1 [Compound I-13] | < 100 nM | – | – | – | 52 % of vehicle control | 53 % of vehicle control | comparable to those of roflumilast | – | 60% | 53% | 67% | 56%
